Values of other authors in paper PMC9262839 (Cancer Discovery, 2022).

Tests used:
[1] = cited from earlier work
[2] = tested on: NSCLC with EGFRexon20ins; settings: cited from earlier work

C=CC(=O)Nc1cc(Nc2ncc(C(=O)OC(C)C)c(-c3cn(C)c4ccccc34)n2)c(OC)cc1N(C)CCN(C)C [Mobocertinib]
patients with ≥grade 3 diarrhea [1]: 21% | patients with ≥grade 3 treatment-related adverse events [1]: around 40%

B1: amivantamab: EGFR and MET bispecific antibody (antibody, chains of the INN, looked up, V domains shown)
VH: QVQLVESGGGVVQPGRSLRLSCAASGFTFSTYGMHWVRQAPGKGLEWVAVIWDDGSYKYYGDSVKGRFTISRDNSKNTLYLQMNSLRAEDTAVYYCARDGITMVRGVMKDYFDYWGQGTLVTVSS
VL: AIQLTQSPSSLSASVGDRVTITCRASQDISSALVWYQQKPGKAPKLLIYDASSLESGVPSRFSGSESGTDFTLTISSLQPEDFATYYCQQFNSYPLTFGGGTKVEIK
VH2: QVQLVQSGAEVKKPGASVKVSCETSGYTFTSYGISWVRQAPGHGLEWMGWISAYNGYTNYAQKLQGRVTMTTDTSTSTAYMELRSLRSDDTAVYYCARDLRGTNYFDYWGQGTLVTVSS
VL2: DIQMTQSPSSVSASVGDRVTITCRASQGISNWLAWFQHKPGKAPKLLIYAASSLLSGVPSRFSGSGSGTDFTLTISSLQPEDFATYYCQQANSFPITFGQGTRLEIK
objective response rate (ORR) [2]: around 40%
